Measured values: patent US20230346889A9, “TREATMENT OF ACUTE HEART FAILURE” (AnaCardio R&D AB, priority 2019, published 2023)
Entries after “also recorded” stand apart in the source; their conditions may differ.

Test system: patients with advanced CHF and reduced EF
Assay: Randomized double-blind placebo-controlled trial of intravenous acyl ghrelin: non-invasive hemodynamics (Innocor, Nexfin)
Format: in vivo
Excerpt: Between 17 Feb. 2013 and 19 May 2015 we conducted a prospective double-blind, placebo-controlled, parallel-group, single centre randomized clinical trial with a one-time treatment of intravenous acyl ghrelin or placebo.
Patients were pre-screened in the Karolinska University Hospital heart failure clinic (FIG. 1) and had symptoms and signs of advanced CHF (New York Heart Association [NYHA] class III-IV) and an EF of ≤40%.
Ghrelin is a 28 amino acid peptide with a molecular weight of 3,371 g/mol. Half-time in plasma is 24-30 minutes. Concentrations in normal humans has variably been reported at 100-300 pmol/L (300-900 ng/L) for total ghrelin. There is limited data on acyl ghrelin but we recently measured acyl ghrelin in 41 healthy non-obese adults: fasting: mean±SD: 118±14 ng/L, 5-95th percentile 27-328 ng/L; trough 60 minutes post 260 kcal mixed meal: 80±12 ng/L, 5-95th percentile 21-293 ng/L. Synthetic acylated (active) human ghrelin (brand name Clinalfa Ghrelin (human) Acetate, product number 4071265; Bachem, Hauptstrasse 144, 4416 Bubendorf, Switzerland—hereafter referred to as ghrelin, was purchased from Bachem (Bubendorf, Switzerland) under license from Daiichi Sankyo (Tokyo, Japan). For each patient and treatment, a stock solution was prepared consisting of multiple vials of powder ghrelin (100 μg ghrelin/vial together with phosphate buffer), each vial dissolved in 1 mL sterile water for infusion (B. Braun, Germany) and visually inspected to be a clear and colorless solution, prior to adding 0.001 g (0.02 ml of 50 g/L stock) human albumin (for concentration 0.001 g/mL=0.1%) to each vial and further mixed with normal saline (NaCl 9 mg/ml, B. Braun, Germany). The proportion of stock solution and saline were according to patient weight (Table 2), resulting in a total volume of 100 mL (to ensure the same volume infusion for all patients). The final intravenous infusion rate was 0.50 mL/min volume (total volume 60 mL), equivalent to 0.1 μg (30 pmol)/kg/min (total amount 12.0 μg/kg) of acyl ghrelin administered to all patients randomized to ghrelin. The infusion was given for 120 minutes and continued until all measurements at 120 minutes had been completed (thus delivering some additional ghrelin). The median total infusion duration was 171 minutes. Measurements were repeated 30 minutes after stopping infusion.
Patients were randomized in parallel by block randomization in groups of 4 using paper envelopes to ghrelin or placebo and the infusion was given by antecubital vein over 120 minutes. A dedicated study nurse prepared ghrelin and placebo for infusion and patients and all other investigators were blinded. Immediately prior to, during, and after the 120 minute infusion and also 30 minutes after stopping the infusion, blood samples were drawn and symptoms, signs, echocardiography, ECG, and non-invasive hemodynamics were assessed (FIG. 2). Patients were discharged to home and returned 2-5 days later for repeat measurements. Patients were followed prospectively for morbidity and mortality outcomes.
Non-invasive resting CO in was assessed in duplicate at each measurement using the Innocor® device (Innovision, Odense, Denmark). The Innocor is a non-invasive device that measures pulmonary blood flow using an inert gas rebreathing technique, and measures VO2 directly. It has been validated for CO and VO2 at rest and exercise (Gabrielsen et al., 2002; Stahlberg et al., 2009).
The Innocor® directly measures pulmonary blood flow, VO2 and SpO2. From these variables, shunt fraction, cardiac output, SVO2 and A-V O2 difference was then calculated using standard formulas. Beat-by-beat ECG, blood pressure and the first derivative of the pressure signal (+dP/dt) were measured using a Nexfin® device (described below). Fifteen minutes of continuous beat-by-beat Nexfin data were averaged at the time of Innocor measurements. Estimated systemic vascular resistance (eSVR) was subsequently calculated as mean blood pressure/cardiac output×80. […]

`CCCCCCCC(=O)OC[C@H](NC(=O)[C@H](CO)NC(=O)CN)C(=O)N[C@@H](Cc1ccccc1)C(=O)N[C@@H](CC(C)C)C(=O)N[C@@H](CO)C(=O)N1CCC[C@H]1C(=O)N[C@@H](CCC(=O)O)C(=O)N[C@@H](Cc1cnc[nH]1)C(=O)N[C@@H](CCC(N)=O)C(=O)N[C@@H](CCCNC(=N)N)C(=O)N[C@H](C(=O)N[C@@H](CCC(N)=O)C(=O)N[C@@H](CCC(N)=O)C(=O)N[C@@H](CCCNC(=N)N)C(=O)N[C@@H](CCCCN)C(=O)N[C@@H](CCC(=O)O)C(=O)N[C@@H](CO)C(=O)N[C@@H](CCCCN)C(=O)N[C@@H](CCCCN)C(=O)N1CCC[C@H]1C(=O)N1CCC[C@H]1C(=O)N[C@@H](C)C(=O)N[C@@H](CCCCN)C(=O)N[C@@H](CC(C)C)C(=O)N[C@@H](CCC(N)=O)C(=O)N1CCC[C@H]1C(=O)N[C@@H](CCCNC(=N)N)C(=O)O)C(C)C` [Ghrelin] was tested, and the “A-V O2-diff” value (2-5 day follow-up visit) was 27.4 ± 10.0 %, the CO (2-5 day follow-up visit) was 4.21 ± 1.27 L/min and the HR (2-5 day follow-up visit) was 71.6 ± 10.8 bpm. The PBF (2-5 day follow-up visit) was 3.58 ± 0.74 L/min, the SV (2-5 day follow-up visit) was 59.9 ± 18.5 mL and the Shunt (2-5 day follow-up visit) was 15.7 ± 16.7%. For the same compound, the SpO2 (2-5 day follow-up visit) was 94.0 ± 3.9+ %, the SvO2 (2-5 day follow-up visit) was 66.4 ± 18.4 % and the VO2 (2-5 day follow-up visit) was 0.22 ± 0.06 L/min. For the same compound, the “CO compared to placebo group” value (2-5 days follow-up) was “still a significant increase in CO”, the “A-V O2 diff” value (30 min after stop Infusion) was 21.6 ± 12.1% and the CO (30 min after stop Infusion) was 4.94 ± 1.70 L/min. It also gave a PBF (30 min after stop Infusion) of 4.14 ± 0.97 L/min, an SV (30 min after stop Infusion) of 74.31 ± 26.09 mL and a Shunt (30 min after stop Infusion) of 12.6 ± 14.3%. It also gave a SpO2 (30 min after stop Infusion) of 94.7 ± 3.9%, a SvO2 (30 min after stop Infusion) of 73.3 ± 12.8% and a VO2 (30 min after stop Infusion) of 0.19 ± 0.08 L/min. It also gave a dBP (30 min after stop Infusion) of 58.9 ± 7.5 mmHg, a dP/dt (30 min after stop Infusion) of 602 ± 252 mmHg/s and a mBP (30 min after stop Infusion) of 75.5 ± 12.0 mmHg. For the same compound, the sBP (30 min after stop Infusion) was 105.7 ± 20.5 mmHg, the “A-V O2 diff” value (Baseline) was 27.6 ± 14.3% and the CO (Baseline) was 4.08 ± 1.15 L/min. The PBF (Baseline) was 3.61 ± 0.70 L/min, the SV (Baseline) was 59.10 ± 17.82 mL and the Shunt (Baseline) was 9.9 ± 10.6%. For the same compound, the SpO2 (Baseline) was 95.2 ± 3.4%, the SvO2 (Baseline) was 67.9 ± 14.4% and the VO2 (Baseline) was 0.20 ± 0.07 L/min. For the same compound, the dBP (Baseline) was 58.6 ± 8.4 mmHg, the dP/dt (Baseline) was 742 ± 267 mmHg/s and the mBP (Baseline) was 74.9 ± 11.3 mmHg. The sBP (Baseline) was 104.7 ± 18.4 mmHg, the “A-V O2-diff” value (Baseline (Table 8)) was 24.4 ± 7.6% and the CO (Baseline (Table 8)) was 4.08 ± 1.15 L/min. It also gave an HR (Baseline (Table 8)) of 69.6 ± 9.1 bpm, a PBF (Baseline (Table 8)) of 3.61 ± 0.70 L/min and an SV (Baseline (Table 8)) of 59.9 ± 19.0 mL. For the same compound, the Shunt (Baseline (Table 8)) was 9.9 ± 10.6%, the SpO2 (Baseline (Table 8)) was 95.2 ± 3.4% and the SvO2 (Baseline (Table 8)) was 67.7 ± 14.3%. For the same compound, the VO2 (Baseline (Table 8)) was 0.2 ± 0.07 L/min, the “A-V O2 diff” value (Infusion + 60 min) was 23.6 ± 12.9 % and the CO (Infusion + 60 min) was 4.64 ± 1.31 L/min. For the same compound, the PBF (Infusion + 60 min) was 3.76 ± 0.76 L/min, the SV (Infusion + 60 min) was 69.64 ± 22.75 mL and the Shunt (Infusion + 60 min) was 16.8 ± 11.8 %. It also gave a SpO2 (Infusion + 60 min) of 93.5 ± 3.5 %, a SvO2 (Infusion + 60 min) of 70.0 ± 13.8% and a VO2 (Infusion + 60 min) of 0.19 ± 0.07 L/min. For the same compound, the dBP (Infusion + 60 min) was 56.5 ± 8.7 mmHg, the dP/dt (Infusion + 60 min) was 535 ± 213 mmHg/s and the mBP (Infusion + 60 min) was 71.4 ± 10.2 mmHg. The sBP (Infusion + 60 min) was 99.0 ± 17.6 mmHg, the “A-V O2 diff” value (Infusion + 120 min) was 20.9 ± 8.5 % and the CO (Infusion + 120 min) was 5.23 ± 1.98 L/min. It also gave a PBF (Infusion + 120 min) of 4.08 ± 0.90 L/min, an SV (Infusion + 120 min) of 79.83 ± 30.30 mL and a Shunt (Infusion + 120 min) of 18.0 ± 12.3 %. It also gave a SpO2 (Infusion + 120 min) of 93.4 ± 3.6 %, a SvO2 (Infusion + 120 min) of 71.7 ± 10.1% and a VO2 (Infusion + 120 min) of 0.19 ± 0.08 L/min. It also gave a dBP (Infusion + 120 min) of 56.1 ± 10.3 mmHg, a dP/dt (Infusion + 120 min) of 531 ± 191 mmHg/s and a mBP (Infusion + 120 min) of 70.9 ± 13.1 mmHg. For the same compound, the sBP (Infusion + 120 min) was 99.0 ± 21.1 mmHg, the “change in HR” value (between baseline and 120 minutes) was “fell slightly” and the “change in calculated SV” value (during and after infusion) was “increased with infusion and fell after stop of infusion”. For the same compound, the “change in systolic, diastolic and mean arterial blood pressure” value (during and after infusion) was “no changes or differences in changes; also recorded: no changes in blood pressure; also recorded: no effect”, the “change in CO” value (during and after infusion, primary outcome) was “increased with infusion and fell after stop of infusion” and the “change in oxygen consumption (VO2)” value (in vivo) was “no change”. The “change in pulmonary blood flow” value (in vivo) was “increased” and the “change in estimated SVR” value (with infusion) was “fell and decrease”.
